The structures appear in SMILES notation. In brackets after ≈: the same amount, converted by molar mass. Starred links: 1 amine or outer side, 2 acyl side, 3 side chain; linkers in the order of their positions; H or OH if unused. Positions of bridges follow the written chain, without caps; N, C: chain ends. Residues, ends and D or L forms follow the SMILES beside them. 2,2'Bipyridine(5,5'-diCH2) = c1cc(-c2ccc(C[*:2])cn2)ncc1C[*:1]; Naphthalene(2,6-diCH2) = c1cc2cc(C[*:2])ccc2cc1C[*:1]

The results in this text go back to patent US20240391965A1, “STAPLED ANTIMICROBIAL PEPTIDES (STAMPS) AND USES THEREOF” (Lytica Therapeutics, Inc., priority 2021, published 2024).

Data set [1] is described as follows: 90 minute cytotoxicity assay (LDH release), renal toxicity. Format: cell-based. The following applies: 90 minutes of incubation, LDH release; read-out: Inhibitory Concentration at 50% Cytotoxicity (IC50) Human Renal Proximal Tubule Epithelial Cells (RPTEC). The method, boiled down:
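RPTEC plated overnight, given fresh medium, then exposed to serial peptide dilutions or vehicle for 90 min at 37° C. Medium LDH measured by 10 min reagent incubation and absorbance at 490 nm.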
A general note: LDH in the medium is a marker of cell lysis.

Data set [2] is described as follows: 48 hours cytotoxicity assay (CellTiter-Glo), liver toxicity. Format: cell-based, human. Conditions: 48 hours of incubation, CellTiter-Glo; read-out: Inhibitory Concentration at 50% Cytotoxicity (IC50) Human Liver Cells (HepG2). The gist of the method: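 HepG2 cells in EMEM with 10% FBS, allowed to attach 4 h, then exposed to serially diluted StAMPs or vehicle for 48 h at 37 °C. Viability read by CellTiter-Glo luminescence.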
Background: ATP-based viability assays read luminescence as a measure of living cells.

Data set [3] has as its system Escherichia coli (E. coli). Format: cell-based. The following applies: microbroth dilution, 20-24 hours at 37° C. The method, boiled down:
(§1)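 Minimum inhibitory concentrations come from a CLSI-adapted broth microdilution. Cells grew in Mueller-Hinton or cation-adjusted Mueller-Hinton broth, were exposed to peptide dilutions at 5×10^5 CFU/ml, and were read by eye after 20-24 h at 37 °C.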
Background: In broth dilution the organism is exposed to a series of concentrations in liquid medium.

Data set [4] relates to Acinetobacter baumannii (A. baumannii). In kind it is cell-based. The following applies: microbroth dilution, 20-24 hours at 37° C. The gist of the method: as §1
In data set [5] the test system is Pseudomonas aeruginosa (P. aeruginosa). Format: cell-based. Conditions: microbroth dilution, 20-24 hours at 37° C. The gist of the method:
as §1

Data set [6] concerns Staphylococcus aureus (S. aureus). In kind it is cell-based. Conditions: microbroth dilution, 20-24 hours at 37° C. The gist of the method:
as §1

The test system of data set [7] is Klebsiella pneumoniae (K. pneumoniae). In kind it is cell-based. The following applies: microbroth dilution, 20-24 hours at 37° C. The method, boiled down:
as §1

Regarding `CC[C@H](C)[C@H](NC(=O)[C@H](CC(C)C)NC(=O)[C@H](CC(C)C)NC(=O)[C@H](CC(N)=O)NC(=O)[C@H](CCCCN)NC(=O)[C@@H](NC(=O)[C@H](CCCCN)NC(=O)[C@@H]1CSCc2ccc3cc(ccc3c2)CSC[C@H](NC(=O)CN)C(=O)N[C@@H](Cc2ccccc2)C(=O)N[C@@H](CO)C(=O)N[C@@H](CCCCN)C(=O)N[C@@H](CC(C)C)C(=O)N[C@@H](C)C(=O)NCC(=O)N1)[C@@H](C)CC)C(=O)N[C@@H](CO)C(=O)NCC(=O)N[C@@H](CC(C)C)C(=O)N[C@@H](CCCCN)C(=O)NCC(N)=O` [compound 52] (H-GCFSKLAGCKIKNLLISGLKG-NH2; linker 2-9 via Naphthalene(2,6-diCH2); N-terminus assumed), the IC50 was above 200 µg/mL in data set [1] and 10 µg/mL (≈ 4.34 µM) in data set [2]. Moreover, the “Minimum Inhibitory Concentration (MIC) E. coli” value in data set [3] was determined as 32 µg/mL. The “Minimum Inhibitory Concentration (MIC) A. baumannii” value in data set [4] turned out to be 32 µg/mL. The “Minimum Inhibitory Concentration (MIC) P. aeruginosa” value in data set [5] was above 64 µg/mL. Also, in data set [6], the “Minimum Inhibitory Concentration (MIC) S. aureus” value is above 64 µg/mL. Further, the “Minimum Inhibitory Concentration (MIC) K. pneumoniae” value in data set [7] was above 64 µg/mL.

`CC[C@H](C)[C@H](NC(=O)CN)C(=O)N[C@H]1CSCc2ccc(nc2)-c2ccc(cn2)CSC[C@@H](C(=O)N[C@H](C(=O)N[C@@H](CCCCN)C(=O)N[C@@H](CC(N)=O)C(=O)N[C@@H](CC(C)C)C(=O)N[C@@H](CC(C)C)C(=O)N[C@H](C(=O)N[C@@H](CO)C(=O)NCC(=O)N[C@@H](CC(C)C)C(=O)N[C@@H](CCCCN)C(=O)NCC(N)=O)[C@@H](C)CC)[C@@H](C)CC)NC(=O)[C@H](CCCCN)NC(=O)CNC(=O)[C@H](C)NC(=O)[C@H](CC(C)C)NC(=O)[C@H](CCCCN)NC(=O)[C@H](CO)NC1=O` [compound 54] (H-GICSKLAGKCIKNLLISGLKG-NH2; linker 3-10 via 2,2'Bipyridine(5,5'-diCH2); N-terminus assumed): the IC50 is 81 µg/mL (≈ 35.3 µM) in data set [1] and 43 µg/mL (≈ 18.7 µM) in data set [2]. Further, the “Minimum Inhibitory Concentration (MIC) E. coli” value in data set [3] came to 8 µg/mL. The “Minimum Inhibitory Concentration (MIC) A. baumannii” value in data set [4] was 8 µg/mL. Also, the “Minimum Inhibitory Concentration (MIC) P. aeruginosa” value in data set [5] worked out at 64 µg/mL. Also, the “Minimum Inhibitory Concentration (MIC) S. aureus” value in data set [6] turned out to be 64 µg/mL. Further, in data set [7], the “Minimum Inhibitory Concentration (MIC) K. pneumoniae” value worked out at 16 µg/mL.

Regarding `CC[C@H](C)[C@H](NC(=O)CN)C(=O)N[C@H]1CSCc2ccc3cc(ccc3c2)CSC[C@@H](C(=O)N[C@H](C(=O)N[C@@H](CCCCN)C(=O)N[C@@H](CC(N)=O)C(=O)N[C@@H](CC(C)C)C(=O)N[C@@H](CC(C)C)C(=O)N[C@H](C(=O)N[C@@H](CO)C(=O)NCC(=O)N[C@@H](CC(C)C)C(=O)N[C@@H](CCCCN)C(=O)NCC(N)=O)[C@@H](C)CC)[C@@H](C)CC)NC(=O)[C@H](CCCCN)NC(=O)CNC(=O)[C@H](C)NC(=O)[C@H](CC(C)C)NC(=O)[C@H](CCCCN)NC(=O)[C@H](CO)NC1=O` [compound 55] (H-GICSKLAGKCIKNLLISGLKG-NH2; linker 3-10 via Naphthalene(2,6-diCH2); N-terminus assumed), the IC50 worked out at 23 µg/mL (≈ 10.1 µM) in data set [1] and 53 µg/mL (≈ 23.4 µM) in data set [2]. For the same molecule, the “Minimum Inhibitory Concentration (MIC) E. coli” value in data set [3] turned out to be 8 µg/mL. The “Minimum Inhibitory Concentration (MIC) A. baumannii” value in data set [4] turned out to be 8 µg/mL. For the same molecule, the “Minimum Inhibitory Concentration (MIC) P. aeruginosa” value in data set [5] came out at 32 µg/mL. Moreover, the “Minimum Inhibitory Concentration (MIC) S. aureus” value in data set [6] came out at 32 µg/mL. Moreover, the “Minimum Inhibitory Concentration (MIC) K. pneumoniae” value in data set [7] was found to be 16 µg/mL.

As for `CC[C@H](C)[C@H](NC(=O)CN)C(=O)N[C@@H](Cc1ccccc1)C(=O)N[C@H]1CSCc2ccc(nc2)-c2ccc(cn2)CSC[C@@H](C(=O)N[C@@H](CCCCN)C(=O)N[C@@H](CC(N)=O)C(=O)N[C@@H](CC(C)C)C(=O)N[C@@H](CC(C)C)C(=O)N[C@H](C(=O)N[C@@H](CO)C(=O)NCC(=O)N[C@@H](CC(C)C)C(=O)N[C@@H](CCCCN)C(=O)NCC(N)=O)[C@@H](C)CC)NC(=O)[C@H](CCCCN)NC(=O)[C@H](CCCCN)NC(=O)CNC(=O)[C@H](C)NC(=O)[C@H](CC(C)C)NC(=O)[C@H](CCCCN)NC1=O` [compound 57] (H-GIFCKLAGKKCKNLLISGLKG-NH2; linker 4-11 via 2,2'Bipyridine(5,5'-diCH2); N-terminus assumed), the IC50 in data set [1] is above 200 µg/mL; in data set [2], 103 µg/mL (≈ 43.4 µM). Moreover, in data set [3], the “Minimum Inhibitory Concentration (MIC) E. coli” value came out at 16 µg/mL. For the same molecule, the “Minimum Inhibitory Concentration (MIC) A. baumannii” value in data set [4] came out at 16 µg/mL. Besides, the “Minimum Inhibitory Concentration (MIC) P. aeruginosa” value in data set [5] was above 64 µg/mL. For the same molecule, the “Minimum Inhibitory Concentration (MIC) S. aureus” value in data set [6] is above 64 µg/mL. In addition, the “Minimum Inhibitory Concentration (MIC) K. pneumoniae” value in data set [7] was above 64 µg/mL.

As to `CC[C@H](C)[C@H](NC(=O)CN)C(=O)N[C@@H](Cc1ccccc1)C(=O)N[C@H]1CSCc2ccc3cc(ccc3c2)CSC[C@@H](C(=O)N[C@@H](CCCCN)C(=O)N[C@@H](CC(N)=O)C(=O)N[C@@H](CC(C)C)C(=O)N[C@@H](CC(C)C)C(=O)N[C@H](C(=O)N[C@@H](CO)C(=O)NCC(=O)N[C@@H](CC(C)C)C(=O)N[C@@H](CCCCN)C(=O)NCC(N)=O)[C@@H](C)CC)NC(=O)[C@H](CCCCN)NC(=O)[C@H](CCCCN)NC(=O)CNC(=O)[C@H](C)NC(=O)[C@H](CC(C)C)NC(=O)[C@H](CCCCN)NC1=O` [compound 58] (H-GIFCKLAGKKCKNLLISGLKG-NH2; linker 4-11 via Naphthalene(2,6-diCH2); N-terminus assumed), the values for the IC50 in data set [1] and in data set [2] were 131 µg/mL (≈ 55.9 µM) and 51 µg/mL (≈ 21.8 µM), respectively. Also, the “Minimum Inhibitory Concentration (MIC) E. coli” value in data set [3] was determined as 16 µg/mL. In data set [4], the “Minimum Inhibitory Concentration (MIC) A. baumannii” value was found to be 4 µg/mL. In data set [5], the “Minimum Inhibitory Concentration (MIC) P. aeruginosa” value was found to be 64 µg/mL. Further, the “Minimum Inhibitory Concentration (MIC) S. aureus” value in data set [6] was above 64 µg/mL. The “Minimum Inhibitory Concentration (MIC) K. pneumoniae” value in data set [7] turned out to be 32 µg/mL.

As to `CC[C@H](C)[C@H](NC(=O)CN)C(=O)N[C@@H](Cc1ccccc1)C(=O)N[C@@H](CO)C(=O)N[C@@H](CCCCN)C(=O)N[C@@H](CC(C)C)C(=O)N[C@H]1CSCc2ccc3cc(ccc3c2)CSC[C@@H](C(=O)N[C@@H](CC(C)C)C(=O)N[C@H](C(=O)N[C@@H](CO)C(=O)NCC(=O)N[C@@H](CC(C)C)C(=O)N[C@@H](CCCCN)C(=O)NCC(N)=O)[C@@H](C)CC)NC(=O)[C@H](CC(N)=O)NC(=O)[C@H](CCCCN)NC(=O)[C@H]([C@@H](C)CC)NC(=O)[C@H](CCCCN)NC(=O)[C@H](CCCCN)NC(=O)CNC1=O` [compound 87] (H-GIFSKLCGKKIKNCLISGLKG-NH2; linker 7-14 via Naphthalene(2,6-diCH2)), the figures for the IC50 in data set [1] and in data set [2] were 44 µg/mL (≈ 18.7 µM) and 54 µg/mL (≈ 22.9 µM), respectively. For the same molecule, the “Minimum Inhibitory Concentration (MIC) E. coli” value in data set [3] stood at 4 µg/mL. Also, in data set [4], the “Minimum Inhibitory Concentration (MIC) A. baumannii” value turned out to be 4 µg/mL. Also, the “Minimum Inhibitory Concentration (MIC) P. aeruginosa” value in data set [5] came to 8 µg/mL. In addition, the “Minimum Inhibitory Concentration (MIC) S. aureus” value in data set [6] is 64 µg/mL. The “Minimum Inhibitory Concentration (MIC) K. pneumoniae” value in data set [7] stood at 8 µg/mL.

Consider `CC[C@H](C)[C@H](NC(=O)CN)C(=O)N[C@@H](Cc1ccccc1)C(=O)N[C@@H](CO)C(=O)N[C@@H](CCCCN)C(=O)N[C@@H](CC(C)C)C(=O)N[C@H]1CSCc2ccc(nc2)-c2ccc(cn2)CSC[C@@H](C(=O)N[C@@H](CC(C)C)C(=O)N[C@H](C(=O)N[C@@H](CO)C(=O)NCC(=O)N[C@@H](CC(C)C)C(=O)N[C@@H](CCCCN)C(=O)NCC(N)=O)[C@@H](C)CC)NC(=O)[C@H](CC(N)=O)NC(=O)[C@H](CCCCN)NC(=O)[C@H]([C@@H](C)CC)NC(=O)[C@H](CCCCN)NC(=O)[C@H](CCCCN)NC(=O)CNC1=O` [compound 89] (H-GIFSKLCGKKIKNCLISGLKG-NH2; linker 7-14 via 2,2'Bipyridine(5,5'-diCH2)), for which the IC50 in data set [1] stood at 80 µg/mL (≈ 33.5 µM); in data set [2], 62 µg/mL (≈ 26 µM). For the same molecule, the “Minimum Inhibitory Concentration (MIC) E. coli” value in data set [3] was 4 µg/mL. In data set [4], the “Minimum Inhibitory Concentration (MIC) A. baumannii” value was found to be 4 µg/mL. Also, in data set [5], the “Minimum Inhibitory Concentration (MIC) P. aeruginosa” value stood at 32 µg/mL. Besides, the “Minimum Inhibitory Concentration (MIC) S. aureus” value in data set [6] is above 64 µg/mL. The “Minimum Inhibitory Concentration (MIC) K. pneumoniae” value in data set [7] is 16 µg/mL.
